Experimental data as given in ChEMBL document CHEMBL3507680, “University of Dundee, Gates Library screen for HepG2 cell viability”.
Several values for one entry are separate records, joined by “and”; a condition that tells them apart may be missing. Equal values may be shown once.

Tests used:
[1] = Human HepG2 cell viability dose-response assay; assay type: toxicity, cell-based
[2] = Human HepG2 cell viability assay in 384 well format; assay type: toxicity, cell-based; design: dose 125 nL, time 70.5 hour; cytotoxicity at 70.5 h: concentration not given beside the values; conditions: HepG2 cells, read-out: Inhibition

SMILES	BOTTOM [1]	HILLSLOPE [1]	TOP [1]	pXC50 [1]	cytotoxicity at 70.5 h [2] [%]
O=C(Nc1cc(C(F)(F)F)c[nH]c1=O)c1ccco1	-14.03 and -12.55	1.1 and 1.086	100	4.903 and 4.796	64
CC(C)c1cc(CN2CCNCC2)no1	-2.548 and -2.696		101.6 and 102.2	4.866 and 4.991	94.6
Cc1nc(Nc2ncc(C)s2)cc(C2CCCN2)n1.Cl (stereo not drawn)	26.01 and 24.5	4.462 and 3.743	100.2 and 98.81	5.319 and 5.315	95.5
Fc1cccc(Nc2nc(N3CCCC3)nc3c2CNCC3)c1		8.053 and 11.8	102.5 and 101.7	5.055 and 5.01	80.4
CC(C)Nc1cc(-c2c[nH]nc2C2CCN(C(=O)C3CCC3)C2)ccn1 (stereo not drawn)	5.771 and 12.22	3.68 and 3.705	97.15 and 97.9	6.593 and 6.589	95.8
COc1ccc(CNC(Cc2ccsc2)c2ccc(C)cn2)cc1OC.Cl (stereo not drawn)	-6.281 and -3.457	2.493 and 1.7	86.66 and 100	5.471 and 5.341	91.5
CCc1nc(CN(C)C2CCN(Cc3cnc(C)cn3)C2)no1 (stereo not drawn)	0	0	0	< 4.53	66
Cc1nn(C)cc1C(=O)Nc1cccc(CN2CCC(CO)CC2)c1	0	0	0	< 4.53	60.6
O=C(NCCCN1CCCCC1)c1ccc(-n2ccc3ccccc32)s1	-3.023 and -2.579	5.041 and 5.956	103.2 and 102.3	5.01 and 4.975	64.9
Cc1nc(CC(C)C)cc(C(=O)N2C[C@@H](N(C)C)[C@H](C(C)C)C2)n1	0	0	0	< 4.53	67
O=C(CCNCC(F)(F)F)N1CCC(Nc2cccnn2)CC1	0	0	0	< 4.53	66.1
Cc1noc(CN2CCOC(CN(C)C)C2)n1 (stereo not drawn)	0	0	0	< 4.53	70.1
Cl.Cl.Clc1cccc(C[C@@H]2NCCC[C@@H]2Nc2cccc(Cl)c2)c1		19.49 and 7.416	101.7 and 101.8	5.461 and 5.474	105
Cc1cnc(CCN(C)C(=O)c2cccc(N(C)C)c2)s1	0	0	0	< 4.53	60.6
Cn1nc(C(=O)NCc2ccccn2)c2c1CCS(=O)(=O)C2	0	0	0	< 4.53	88.4
Cc1ccc(S(=O)(=O)N2C[C@H]3C[C@H](NC(=O)c4cc[nH]n4)[C@H]3C2)cc1	-15.24 and -16.22	0.6106 and 0.5978	100	5.239 and 5.299	61.6
COCC(NC(=O)c1cn2ccsc2n1)c1ccnn1C (stereo not drawn)	0	0	0	< 4.53	97.2
COc1ccccc1NC(=O)c1ccc(C)n1C	-9.133 and -11.57	2.979 and 2.832	100	5.661 and 5.693	96
OC1COCCN(Cc2cc(-c3ccccc3OC(F)(F)F)no2)C1 (stereo not drawn)	0	0	0	< 4.53	60
COc1cccc(S(=O)(=O)N2CCC(O)(CN(C)C)C2)c1 (stereo not drawn)					-19.7
COc1ccc(C(=O)N2CCN(C(=O)Cn3nccc3C)CC2)cc1					1.46
CN(C)CCN1CCN(C)C2(CCN(c3nccs3)CC2)C1=O					-3.76
O=C(NC1CCCCC1)N1CCCC1c1nnc2n1CCNC2 (stereo not drawn)					19.4
C(=C\c1ccccc1)/CNCC1CCc2nncn2C1 (stereo not drawn)					5.32
CCCn1nc(C)c(CN(CCN(C)C)Cc2ccccn2)c1C					12.9
COc1ccccc1CNC(=O)N1CCCC(NS(C)(=O)=O)C1 (stereo not drawn)					15.3
COCCCNS(=O)(=O)c1cccc(CSC)c1					-16.6
COCCOc1nc(-c2ccccc2Cl)no1					-78.8

SMILES	BOTTOM [1]	HILLSLOPE [1]	TOP [1]	pXC50 [1]	cytotoxicity at 70.5 h [2] [%]
COc1cc(N2C[C@@H]3CC[C@H](C2)N(CC2CCC2)C3=O)ncn1					-3.49
Fc1cccc(Oc2ccc(CNCC3CNc4ccnn4C3)cn2)c1 (stereo not drawn)					0.403
Cc1ncccc1C(=O)N1CCC2(CCc3ccccc3C(=O)N2)C1 (stereo not drawn)					15.5
COc1ccc(NC(=O)N(C)Cc2ccco2)cn1					-6.69
COc1cccc(Cc2nc3c([nH]2)CC(C)(C)CNC3=O)c1OC					-1.08
O=C1CN(CC2CC2)Cc2nc(NCCc3ccccn3)sc21					26.4
CCc1c(C)sc2ncnc(N3C[C@H](O)[C@@H](N4CCCC4)C3)c12					-2.63
CCn1cc(CN2CCCN(C(=O)c3ccco3)CC2)cn1					-6.43
CC(=O)N1CCOC(CNC(=O)c2cccc(CCC(C)(C)O)c2)C1 (stereo not drawn)					8.87
CCCn1ncc(C(=O)N2CCN([C@H]3CCCC[C@@H]3O)CC2)c1C					-0.657
CCOC(=O)C1(CCOC)CCN(Cc2nccn2CC)CC1					-7.56
O=C(c1ccccn1)N1CCC(Oc2ncccc2Cl)CC1					-2.05
CCN1CCN(c2ccc(CNC(=O)c3sccc3C)cn2)CC1					-9.08
CNc1cc2c(nn1)CCN(C(=O)c1cccc3c1OCCO3)C2					-0.154
O=C(c1ccc2ccccc2c1)C1CCCN(C(=O)Cn2cncn2)C1 (stereo not drawn)					-1.71
Cc1csc(C(=O)NCCN2CCC(c3cccs3)CC2)c1					35.6
CN(Cc1cccs1)C1CCC[C@@H]2CN(C(=O)c3cccn3C)C[C@H]12 (stereo partly drawn)					-12.3
Cc1ccc(C(=O)N2C[C@@H]3CCCO[C@@H]3[C@H](N(C)Cc3ccco3)C2)o1					28.7
CCn1cc(CN2CCCN(C(=O)Cc3cccs3)CC2)cn1					28
CCOCC(=O)NCCC(O)c1ccoc1 (stereo not drawn)					-11.9
Cc1csc(C(=O)N2CC(S(=O)(=O)C3CCCCC3)C2)c1					-6.45
Cn1nnnc1SC1CCCN(c2ccccc2Cl)C1=O (stereo not drawn)					-1.81
Cn1ncc2c(N3CCCN(C(=O)c4ccsc4)CC3)ncnc21					-1.19
COC(=O)c1cccc(CNC(=O)NCCC(F)(F)F)c1					1.57
CN(C)[C@H]1CCN(c2ccnc(C(=O)NCc3ccco3)c2)C1					-5.04
CN1CC(=O)N(c2cccnc2)CC12CCN(C(=O)c1cccnc1)C2 (stereo not drawn)					2.34
CC(C)(C)c1cnc(CN2CCC(CO)CC2)o1					-3.87
